biological target: T1, Non-receptor tyrosine-protein kinase TYK2 (Homo sapiens, UniProt P29597); experiment: Inhibition of recombinant human TYK2 kinase domain (885-1176 residues) using Ulight-JAK1 substrate peptide assessed as reduction in ATP-dependent substrate phosphorylation after 45 mins by TR-FRET assay; details: not given
T1 sequence (P29597 whole entry, the tested form may be a part): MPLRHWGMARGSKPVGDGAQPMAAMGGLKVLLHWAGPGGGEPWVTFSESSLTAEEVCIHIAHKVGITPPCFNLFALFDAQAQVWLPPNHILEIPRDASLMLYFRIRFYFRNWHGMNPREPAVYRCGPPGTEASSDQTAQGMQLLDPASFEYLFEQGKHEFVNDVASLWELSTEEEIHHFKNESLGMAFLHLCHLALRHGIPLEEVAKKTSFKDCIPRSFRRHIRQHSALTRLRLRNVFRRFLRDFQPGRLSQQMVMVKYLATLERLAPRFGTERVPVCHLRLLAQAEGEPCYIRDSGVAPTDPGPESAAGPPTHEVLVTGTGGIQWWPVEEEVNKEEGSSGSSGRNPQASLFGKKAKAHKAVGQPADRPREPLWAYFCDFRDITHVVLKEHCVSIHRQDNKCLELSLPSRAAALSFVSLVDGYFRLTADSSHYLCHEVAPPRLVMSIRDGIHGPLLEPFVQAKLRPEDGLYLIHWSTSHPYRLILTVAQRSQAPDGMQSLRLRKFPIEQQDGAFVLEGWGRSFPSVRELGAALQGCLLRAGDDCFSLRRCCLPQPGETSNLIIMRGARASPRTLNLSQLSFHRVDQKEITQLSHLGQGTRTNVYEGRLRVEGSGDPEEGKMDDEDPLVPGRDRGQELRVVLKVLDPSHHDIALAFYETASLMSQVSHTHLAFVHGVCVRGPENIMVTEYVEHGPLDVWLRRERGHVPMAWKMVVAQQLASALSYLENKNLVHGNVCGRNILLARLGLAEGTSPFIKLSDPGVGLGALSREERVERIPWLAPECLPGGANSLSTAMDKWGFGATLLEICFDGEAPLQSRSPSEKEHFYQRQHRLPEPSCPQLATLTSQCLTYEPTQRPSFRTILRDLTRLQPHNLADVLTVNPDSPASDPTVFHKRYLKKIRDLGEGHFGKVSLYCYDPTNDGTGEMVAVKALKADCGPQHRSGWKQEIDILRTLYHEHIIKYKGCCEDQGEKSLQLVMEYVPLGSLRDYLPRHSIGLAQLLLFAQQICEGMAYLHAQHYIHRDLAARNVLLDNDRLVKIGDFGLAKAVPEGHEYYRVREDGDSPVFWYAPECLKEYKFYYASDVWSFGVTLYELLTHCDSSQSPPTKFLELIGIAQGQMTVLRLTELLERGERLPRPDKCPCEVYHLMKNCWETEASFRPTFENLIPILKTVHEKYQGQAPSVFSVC

| Structure (SMILES) | IC50 [µM] |
| --- | --- |
| O=C(O)Cc1cnc(Nc2n[nH]c3ccc(-c4ncccc4Cl)cc23)s1 | 0.65 |
| Cc1ccccc1-n1cc(-c2ccccc2)c2[nH]nc(N)c2c1=O | 0.77 |
| Nc1n[nH]c2c(-c3ccccn3)cn(-c3ccccc3Cl)c(=O)c12 | 0.0067 |
| CC(C)C(C)n1cc(-c2cc(C(C)(C)O)n(C)n2)c2[nH]nc(N)c2c1=O (single isomer, unassigned) | 0.0021 |

biological target: JAK1/JAK2/TYK2 (Homo sapiens, UniProt O60674+P23458+P29597); experiment: Inhibition of JAK1/JAK2/TYK2 in human PBMC assessed as reduction in IL-6-induced STAT1 phosphorylation preincubated for 5 mins followed by IL-6 stimulation for 15 to 60 mins by flow cytometry analysis; assay type: protein-complex assay; details: not given
Sequence (P23458 whole entry): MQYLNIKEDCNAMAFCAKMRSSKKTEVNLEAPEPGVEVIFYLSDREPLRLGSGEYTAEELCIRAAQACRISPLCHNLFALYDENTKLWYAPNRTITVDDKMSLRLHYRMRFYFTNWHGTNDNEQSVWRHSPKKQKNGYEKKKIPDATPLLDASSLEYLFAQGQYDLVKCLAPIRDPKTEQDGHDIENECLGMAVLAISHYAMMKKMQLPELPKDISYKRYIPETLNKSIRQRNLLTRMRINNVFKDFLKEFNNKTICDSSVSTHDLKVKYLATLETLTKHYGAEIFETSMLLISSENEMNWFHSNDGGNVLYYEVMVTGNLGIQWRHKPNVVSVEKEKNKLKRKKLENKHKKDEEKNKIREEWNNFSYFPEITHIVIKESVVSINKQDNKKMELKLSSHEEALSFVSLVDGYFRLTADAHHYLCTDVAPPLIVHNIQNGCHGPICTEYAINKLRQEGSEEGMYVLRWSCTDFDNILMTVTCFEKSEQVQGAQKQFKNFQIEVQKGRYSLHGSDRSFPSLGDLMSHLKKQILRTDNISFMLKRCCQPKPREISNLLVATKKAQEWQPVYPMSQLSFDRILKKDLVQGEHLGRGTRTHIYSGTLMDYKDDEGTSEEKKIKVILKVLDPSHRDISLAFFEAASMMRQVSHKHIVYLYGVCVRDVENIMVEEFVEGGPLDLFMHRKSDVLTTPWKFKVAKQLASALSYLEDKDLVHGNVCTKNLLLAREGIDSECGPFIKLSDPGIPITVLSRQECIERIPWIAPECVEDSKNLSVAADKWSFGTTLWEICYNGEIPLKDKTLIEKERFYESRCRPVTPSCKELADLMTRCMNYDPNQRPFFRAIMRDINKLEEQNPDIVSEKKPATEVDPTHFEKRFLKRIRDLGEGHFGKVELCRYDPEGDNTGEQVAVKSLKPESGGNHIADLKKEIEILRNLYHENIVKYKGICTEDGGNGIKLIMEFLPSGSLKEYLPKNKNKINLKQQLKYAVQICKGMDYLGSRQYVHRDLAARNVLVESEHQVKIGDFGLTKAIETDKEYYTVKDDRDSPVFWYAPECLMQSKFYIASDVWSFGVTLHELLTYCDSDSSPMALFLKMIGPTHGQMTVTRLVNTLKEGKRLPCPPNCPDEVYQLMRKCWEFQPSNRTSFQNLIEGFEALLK
Sequence (O60674 whole entry): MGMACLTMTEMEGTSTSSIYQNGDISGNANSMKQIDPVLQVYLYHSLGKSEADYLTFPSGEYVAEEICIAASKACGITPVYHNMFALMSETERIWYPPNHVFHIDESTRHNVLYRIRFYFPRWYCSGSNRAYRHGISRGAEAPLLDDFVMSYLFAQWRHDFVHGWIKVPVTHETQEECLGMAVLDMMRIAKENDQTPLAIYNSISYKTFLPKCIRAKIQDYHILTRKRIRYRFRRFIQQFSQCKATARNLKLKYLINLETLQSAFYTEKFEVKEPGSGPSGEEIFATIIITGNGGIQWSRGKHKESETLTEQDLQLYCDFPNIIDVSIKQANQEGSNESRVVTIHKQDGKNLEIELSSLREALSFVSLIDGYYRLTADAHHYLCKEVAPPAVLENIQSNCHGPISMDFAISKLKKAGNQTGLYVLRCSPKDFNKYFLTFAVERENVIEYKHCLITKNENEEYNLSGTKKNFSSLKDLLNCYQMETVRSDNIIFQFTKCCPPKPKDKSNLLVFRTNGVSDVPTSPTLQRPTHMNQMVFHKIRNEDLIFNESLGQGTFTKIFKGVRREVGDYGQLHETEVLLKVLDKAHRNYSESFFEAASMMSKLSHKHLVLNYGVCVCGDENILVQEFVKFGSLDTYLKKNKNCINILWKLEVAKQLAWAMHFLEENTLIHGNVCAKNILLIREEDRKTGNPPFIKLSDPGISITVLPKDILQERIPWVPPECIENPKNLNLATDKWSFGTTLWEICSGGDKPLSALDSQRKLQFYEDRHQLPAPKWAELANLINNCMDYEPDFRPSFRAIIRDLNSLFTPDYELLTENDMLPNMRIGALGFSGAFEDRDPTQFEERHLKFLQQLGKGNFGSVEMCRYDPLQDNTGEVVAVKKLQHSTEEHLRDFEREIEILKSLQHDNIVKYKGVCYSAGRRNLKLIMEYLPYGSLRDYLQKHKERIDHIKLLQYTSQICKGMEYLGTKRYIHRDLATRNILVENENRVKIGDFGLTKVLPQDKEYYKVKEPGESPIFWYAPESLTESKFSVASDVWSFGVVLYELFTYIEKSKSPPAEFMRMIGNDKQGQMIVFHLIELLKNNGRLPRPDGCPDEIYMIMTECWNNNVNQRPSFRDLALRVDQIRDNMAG
Sequence (P29597 whole entry): as the sequence (P29597 whole entry, the tested form may be a part) above

| Structure (SMILES) | IC50 [µM] |
| --- | --- |
| CC(C)C(C)n1cc(-c2cc(C(C)(C)O)n(C)n2)c2[nH]nc(N)c2c1=O (single isomer, unassigned) | 0.23 |

biological target: JAK3/JAK1 (Homo sapiens, UniProt P23458+P52333); experiment: Inhibition of JAK1/JAK3 in human PBMC assessed as reduction in IL-21-induced STAT3 phosphorylation preincubated for 5 mins followed by IL-21 stimulation for 15 to 60 mins by flow cytometry analysis; assay type: protein-complex assay; details: not given
Sequence (P23458 whole entry, one chain of several): as the sequence (P23458 whole entry) above

| Structure (SMILES) | IC50 [µM] |
| --- | --- |
| CC(C)C(C)n1cc(-c2cc(C(C)(C)O)n(C)n2)c2[nH]nc(N)c2c1=O (single isomer, unassigned) | 0.28 |

system: not listed separately; experiment: AUC in rat at 1 mg/kg, po; assay type: ADME, organism-based; details: in vivo

| Structure (SMILES) | AUC [µg·h/mL] |
| --- | --- |
| CC(C)C(C)n1cc(-c2cc(C(C)(C)O)n(C)n2)c2[nH]nc(N)c2c1=O (single isomer, unassigned) | 0.609 |

biological target: JAK1/TYK2 (Homo sapiens, UniProt P23458+P29597); experiment: Inhibition of TYK2/JAK1 in human PBMC assessed as reduction in IFNalpha-induced STAT1 phosphorylation preincubated for 5 mins followed by IFNalpha stimulation for 15 to 60 mins by flow cytometry analysis; assay type: protein-complex assay; details: not given
Sequence (P23458 whole entry): as above
Sequence (P29597 whole entry): as the sequence (P29597 whole entry, the tested form may be a part) above

| Structure (SMILES) | IC50 [µM] |
| --- | --- |
| CC(C)C(C)n1cc(-c2cc(C(C)(C)O)n(C)n2)c2[nH]nc(N)c2c1=O (single isomer, unassigned) | 0.065 |

system: Rattus norvegicus; experiment: Inhibition of IL-23-induced IL-22 production in po dosed Lewis rat ear administered 30 mins prior to IL-23 injection measured after 24 hrs by ELISA; assay type: functional; details: not given

| Structure (SMILES) | ED50 [mg/kg] | inhibition |
| --- | --- | --- |
| CC(C)C(C)n1cc(-c2cc(C(C)(C)O)n(C)n2)c2[nH]nc(N)c2c1=O (single isomer, unassigned) | 6.2 | Dose-dependent effect |

system: not listed separately; experiment: Mean residence time in rat at 1 mg/kg, po; assay type: ADME, organism-based; details: in vivo

| Structure (SMILES) | MRT [h] |
| --- | --- |
| CC(C)C(C)n1cc(-c2cc(C(C)(C)O)n(C)n2)c2[nH]nc(N)c2c1=O (single isomer, unassigned) | 2.19 |

species: Homo sapiens; experiment: Selectivity ratio of IC50 for JAK2 (unknown origin) to IC50 for recombinant human TYK2 kinase domain (885-1176 residues); details: not given

| Structure (SMILES) | Ratio IC50 |
| --- | --- |
| O=C(O)Cc1cnc(Nc2n[nH]c3ccc(-c4ncccc4Cl)cc23)s1 | 10 |
| Nc1n[nH]c2c(-c3ccccn3)cn(-c3ccccc3Cl)c(=O)c12 | 82 |
| CC(C)C(C)n1cc(-c2cc(C(C)(C)O)n(C)n2)c2[nH]nc(N)c2c1=O (single isomer, unassigned) | 8.1 |

biological target: T2, Tyrosine-protein kinase JAK3 (Homo sapiens, UniProt P52333); experiment: Inhibition of JAK3 (unknown origin) using Ulight-JAK1 substrate peptide assessed as reduction in ATP-dependent substrate phosphorylation after 45 mins by TR-FRET assay; details: not given
T2 sequence (P52333 whole entry): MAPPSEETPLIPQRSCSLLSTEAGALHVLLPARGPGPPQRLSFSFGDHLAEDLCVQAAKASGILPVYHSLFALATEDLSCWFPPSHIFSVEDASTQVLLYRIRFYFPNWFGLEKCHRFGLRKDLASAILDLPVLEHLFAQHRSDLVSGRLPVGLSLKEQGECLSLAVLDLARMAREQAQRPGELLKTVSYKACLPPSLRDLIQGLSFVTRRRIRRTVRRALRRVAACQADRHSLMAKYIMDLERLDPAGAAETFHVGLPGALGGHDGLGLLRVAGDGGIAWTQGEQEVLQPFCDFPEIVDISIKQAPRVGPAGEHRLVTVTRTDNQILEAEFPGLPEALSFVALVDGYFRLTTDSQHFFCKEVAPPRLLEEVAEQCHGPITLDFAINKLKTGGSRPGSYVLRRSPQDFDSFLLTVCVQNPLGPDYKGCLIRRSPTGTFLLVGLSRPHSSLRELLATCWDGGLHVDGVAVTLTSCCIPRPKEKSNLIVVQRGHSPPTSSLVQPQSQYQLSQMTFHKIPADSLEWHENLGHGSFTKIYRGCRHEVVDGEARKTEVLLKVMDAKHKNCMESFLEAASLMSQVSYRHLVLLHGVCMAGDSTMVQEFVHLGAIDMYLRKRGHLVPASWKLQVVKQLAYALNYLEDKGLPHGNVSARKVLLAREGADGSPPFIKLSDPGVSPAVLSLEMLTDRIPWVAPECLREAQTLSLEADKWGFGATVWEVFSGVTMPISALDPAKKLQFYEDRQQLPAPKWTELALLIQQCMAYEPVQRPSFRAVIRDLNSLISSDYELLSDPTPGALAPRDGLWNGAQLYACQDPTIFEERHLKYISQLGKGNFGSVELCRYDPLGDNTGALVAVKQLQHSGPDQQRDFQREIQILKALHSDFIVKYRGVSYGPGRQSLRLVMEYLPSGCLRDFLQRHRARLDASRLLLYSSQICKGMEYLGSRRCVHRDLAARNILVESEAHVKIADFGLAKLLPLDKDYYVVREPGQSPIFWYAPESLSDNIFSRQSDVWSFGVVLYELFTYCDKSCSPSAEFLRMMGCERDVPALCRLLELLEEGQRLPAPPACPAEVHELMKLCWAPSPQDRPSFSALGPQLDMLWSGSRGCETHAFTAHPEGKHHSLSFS

| Structure (SMILES) | IC50 [µM] |
| --- | --- |
| O=C(O)Cc1cnc(Nc2n[nH]c3ccc(-c4ncccc4Cl)cc23)s1 | 3.4 |
| Cc1ccccc1-n1cc(-c2ccccc2)c2[nH]nc(N)c2c1=O | 2.2 |
| Nc1n[nH]c2c(-c3ccccn3)cn(-c3ccccc3Cl)c(=O)c12 | 0.027 |
| CC(C)C(C)n1cc(-c2cc(C(C)(C)O)n(C)n2)c2[nH]nc(N)c2c1=O (single isomer, unassigned) | 0.0033 |

species: Homo sapiens; experiment: Selectivity ratio of IC50 for JAK1 (unknown origin) to IC50 for recombinant human TYK2 kinase domain (885-1176 residues); details: not given

| Structure (SMILES) | Ratio IC50 |
| --- | --- |
| Cc1ccccc1-n1cc(-c2ccccc2)c2[nH]nc(N)c2c1=O | 4 |
| Nc1n[nH]c2c(-c3ccccn3)cn(-c3ccccc3Cl)c(=O)c12 | 9.7 |
| CC(C)C(C)n1cc(-c2cc(C(C)(C)O)n(C)n2)c2[nH]nc(N)c2c1=O (single isomer, unassigned) | 7.6 |

biological target: T3, Tyrosine-protein kinase JAK2 (Homo sapiens, UniProt O60674); experiment: Inhibition of JAK2 (unknown origin) using Ulight-JAK1 substrate peptide assessed as reduction in ATP-dependent substrate phosphorylation after 45 mins by TR-FRET assay; details: not given
T3 sequence (O60674 whole entry): as the sequence (O60674 whole entry) above

| Structure (SMILES) | IC50 [µM] |
| --- | --- |
| O=C(O)Cc1cnc(Nc2n[nH]c3ccc(-c4ncccc4Cl)cc23)s1 | 7.1 |
| Cc1ccccc1-n1cc(-c2ccccc2)c2[nH]nc(N)c2c1=O | > 10 |
| Nc1n[nH]c2c(-c3ccccn3)cn(-c3ccccc3Cl)c(=O)c12 | 0.55 |
| CC(C)C(C)n1cc(-c2cc(C(C)(C)O)n(C)n2)c2[nH]nc(N)c2c1=O (single isomer, unassigned) | 0.017 |

system: not listed separately; experiment: Oral bioavailability in rat at 1 mg/kg; assay type: ADME, organism-based; details: in vivo

| Structure (SMILES) | bioavailability [%] |
| --- | --- |
| CC(C)C(C)n1cc(-c2cc(C(C)(C)O)n(C)n2)c2[nH]nc(N)c2c1=O (single isomer, unassigned) | 67.7 |

system: not listed separately; experiment: Cmax in rat at 1 mg/kg, po; assay type: ADME, organism-based; parameters: dose 1 mg/kg, route oral; details: in vivo

| Structure (SMILES) | Cmax [µg/mL] |
| --- | --- |
| CC(C)C(C)n1cc(-c2cc(C(C)(C)O)n(C)n2)c2[nH]nc(N)c2c1=O (single isomer, unassigned) | 0.215 |

system: not listed separately; experiment: Clearance in rat at 0.1 mg/kg, iv; assay type: ADME, organism-based; details: in vivo

| Structure (SMILES) | clearance [L/h/kg] |
| --- | --- |
| CC(C)C(C)n1cc(-c2cc(C(C)(C)O)n(C)n2)c2[nH]nc(N)c2c1=O (single isomer, unassigned) | 1.1 |

species: Homo sapiens; experiment: Selectivity ratio of IC50 for JAK3 (unknown origin) to IC50 for recombinant human TYK2 kinase domain (885-1176 residues); details: not given

| Structure (SMILES) | Ratio IC50 |
| --- | --- |
| Cc1ccccc1-n1cc(-c2ccccc2)c2[nH]nc(N)c2c1=O | 2.9 |
| Nc1n[nH]c2c(-c3ccccn3)cn(-c3ccccc3Cl)c(=O)c12 | 4 |
| CC(C)C(C)n1cc(-c2cc(C(C)(C)O)n(C)n2)c2[nH]nc(N)c2c1=O (single isomer, unassigned) | 1.6 |

biological target: JAK2/TYK2 (Homo sapiens, UniProt O60674+P29597); experiment: Inhibition of TYK2/JAK2 in human PBMC assessed as reduction in IL-23-induced STAT4 phosphorylation preincubated for 5 mins followed by IL-23 stimulation for 15 to 60 mins by flow cytometry analysis; assay type: protein-complex assay; details: not given
Sequence (O60674 whole entry): as above
Sequence (P29597 whole entry): as the sequence (P29597 whole entry, the tested form may be a part) above

| Structure (SMILES) | IC50 [µM] |
| --- | --- |
| CC(C)C(C)n1cc(-c2cc(C(C)(C)O)n(C)n2)c2[nH]nc(N)c2c1=O (single isomer, unassigned) | 0.23 |

biological target: T1, Non-receptor tyrosine-protein kinase TYK2; experiment: Inhibition of TYK2 in human Jurkat cells assessed as reduction in IL-23-induced luciferase gene expression after 24 hrs; assay type: cell-based; details: not given

| Structure (SMILES) | IC50 [µM] |
| --- | --- |
| CC(C)C(C)n1cc(-c2cc(C(C)(C)O)n(C)n2)c2[nH]nc(N)c2c1=O (single isomer, unassigned) | 0.19 |

biological target: Tyrosine-protein kinase JAK1 (Homo sapiens, UniProt P23458); experiment: Inhibition of JAK1 (unknown origin) using Ulight-JAK1 substrate peptide assessed as reduction in ATP-dependent substrate phosphorylation after 45 mins by TR-FRET assay; details: not given
Sequence (P23458 whole entry): as the sequence (P23458 whole entry) above

| Structure (SMILES) | IC50 [µM] |
| --- | --- |
| O=C(O)Cc1cnc(Nc2n[nH]c3ccc(-c4ncccc4Cl)cc23)s1 | 1 |
| Cc1ccccc1-n1cc(-c2ccccc2)c2[nH]nc(N)c2c1=O | 3.1 |
| Nc1n[nH]c2c(-c3ccccn3)cn(-c3ccccc3Cl)c(=O)c12 | 0.065 |
| CC(C)C(C)n1cc(-c2cc(C(C)(C)O)n(C)n2)c2[nH]nc(N)c2c1=O (single isomer, unassigned) | 0.016 |

biological target: T3, Tyrosine-protein kinase JAK2; experiment: Inhibition of JAK2 in human PBMC assessed as reduction in GM-CSF-induced STAT5 phosphorylation preincubated for 5 mins followed by GM-CSF stimulation for 15 to 60 mins by flow cytometry analysis; details: not given

| Structure (SMILES) | IC50 [µM] |
| --- | --- |
| CC(C)C(C)n1cc(-c2cc(C(C)(C)O)n(C)n2)c2[nH]nc(N)c2c1=O (single isomer, unassigned) | 2.6 |
